Test results taken from PMC3469418, “New Partners in Regulation of Gene Expression: The Enhancer of Trithorax and Polycomb Corto Interacts with Methylated Ribosomal Protein L12 Via Its Chromodomain” (PLoS Genetics, 2012).
Like-named read-outs stand apart in the source and are kept apart here. Where a SMILES comes first, the peptide text is derived from it. Where no end group is shown, it is not given here. [ ]: non-standard residue; d: D form. Lys(Me3) = C[N+](C)(C)CCCC[C@H](N)C(=O)O; Lys(Me2) = CN(C)CCCC[C@H](N)C(=O)O

Assays:
[1] = target: HP1 chromodomain (GST-HP1CD) (Drosophila melanogaster, UniProt P05205); assay: Biacore real-time binding of peptides to immobilized GST-HP1CD
Chain of HP1 chromodomain (GST-HP1CD) (P05205 24-82 limits assumed): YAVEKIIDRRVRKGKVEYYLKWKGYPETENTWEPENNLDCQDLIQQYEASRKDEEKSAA
Experimental: Figure 5 Preferential binding of Corto chromodomain to RPL12 trimethylated on lysine 3. (A) Biacore sensorgrams showing binding of either RPL12 unmethylated peptide (RPL12 um, left panel) or RPL12 peptide trimethylated on lysine 3 (RPL12K3me3, right panel) to CortoCD. Increasing concentrations of RPL12 um or RPL12K3me3 peptides were used [from 0 (light grey lines) to 10 µM (darker grey to black lines]. Binding (Y-axis, Response) is expressed in Resonance Units (RU) relative to time (X-axis). Note the response due to end of injection of the peptides at 300 s. (B) Kinetic parameters of interaction between CortoCD and RPL12 um, RPL12K3me2 or RPL12K3me3 peptides. Note that CortoCD interacts specifically with RPL12 trimethylated on lysine 3 (KD = 8 µM). (C) Equilibrium dissociation constant (KD) calculated for CortoCD or HP1CD in interaction with RPL12 um peptide, RPL12 methylated peptides, or RPL12K3A peptide. Note that CortoCD specifically binds to RPL12K3me3 (KD<100 µM). (D) Equilibrium dissociation constant (KD) calculated from CortoCD or HP1CD interacting with unmethylated or trimethylated histone H3 peptides. For H3K9me3, peptide concentration was increased from 0 to 1 µM. For RPL12 and H3K27me3 peptide concentration was increased from 0 to 10 µM. NB: no binding; nd: not determined. TEXT PRINTED IN THE PICTURE: (B) RpL12um: CortoCD Ka ( M^-1s^-1): 1.2; CortoCD Kd ( s^-1): 7.6.10^-4; CortoCD KD (μM): 624 | (B) RpL12K3me2: CortoCD Ka ( M^-1s^-1): 4.1; CortoCD Kd ( s^-1): 9.9.10^-4; CortoCD KD (μM): 238 | (B) RpL12K3me3: CortoCD Ka ( M^-1s^-1): 106; CortoCD Kd ( s^-1): 8.2.10^-4; CortoCD KD (μM): 8 | (C) RpL12um: CortoCD: 624; HP1CD: > 1000 | (C) RpL12K3me2: CortoCD: 238 | (C) RpL12K3me3: CortoCD: 8; HP1CD: 292 | (C) RpL12K10me3: CortoCD: NB; HP1CD: NB | (C) RpL12K3A: CortoCD: NB; HP1CD: NB | (D) H3K4me3: CortoCD: NB; HP1CD: NB | (D) H3K9me3: CortoCD: NB; HP1CD: 0.4 | (D) H3K27me3: CortoCD: NB; HP1CD: 0.7 | (D) H3um: CortoCD: NB; HP1CD: NB | (D) H3K27um: CortoCD: NB; HP1CD: NB DOUBTS OF THE COPYIST ABOUT THIS PICTURE: Panels C and D: the picture prints no measure or unit for the table values, so they are given with the row head only / Panel C, RpL12K3me2, HP1CD: the cell prints 'nd', which is not a result and is left out
To investigate whether RPL12K3me3 could bind to other chromodomains, we repeated these experiments using that of HP1 (HP1CD). GST-HP1CD was immobilized on the sensor chip and binding of either RPL12, RPL12K3me3, RPL12K10me3 or RPL12K3A was tested. None of these peptides specifically interacted with HP1CD (KD>200 µM) (Figure 5C, Figure S3). […] No binding of unmodified H3, H3K27me3, H3K9me3 or H3K4me3 peptides was observed (Figure 5D) while, as expected, the H3K9me3 peptide bound HP1CD with high affinity (KD = 0.4 µM).
GST or GST fusion proteins were dialyzed using a Slide-A-Lyser cassette (Thermo Scientific) in running buffer (10 mM Hepes pH7.4, 150 mM NaCl, 3 mM EDTA, 0.005% P20 surfactant) (GE Healthcare). Real-time protein interaction assays were performed using a Biacore 3000. Kinetics and binding tests were first performed on empty surfaces. Data presented here result from substraction of empty surface RU (1 to 5 depending on the experiment) from active surface RU. GST was covalently coupled to a CM5 sensor chip (GE Healthcare) via its N-terminal amino acid. The carboxymethylated dextran surface was activated by injecting a mixture of 0.2 M 1-ethyl-3-(3-dimethylaminopropyl) and 0.05 M N-hydroxysuccinimide. […]

[2] = target: T1, Corto chromodomain (GST-CortoCD) (Drosophila melanogaster, UniProt P41046); assay: Biacore real-time binding of peptides to immobilized GST-CortoCD; conditions: for kon: pH 7.4, Figure 5B, Biacore 3000, CM5 chip, peptides 1 to 10 µM in running buffer (10 mM Hepes pH7.4, 150 mM NaCl), 5 µL/min for 5 min, 1:1 Langmuir fit, read-out: CortoCD Ka
T1 construct: Over-expression of the Corto chromodomain (CortoCD); made in house
T1 sequence (P41046 127-203 limits assumed): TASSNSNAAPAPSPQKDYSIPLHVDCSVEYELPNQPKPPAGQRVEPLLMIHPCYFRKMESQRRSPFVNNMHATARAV
Experimental: (§1) To test whether Corto directly interacted with RPL12 lysine 3, we measured real-time binding between CortoCD and several RPL12 peptides using Biacore. GST-CortoCD and GST were immobilized on a CM5 sensor chip. Then, several RPL12 peptides [unmodified (RPL12um), methylated on lysine 3 (RPL12K3me2, RPL12K3me3), methylated on lysine 10 (RPL12K10me3) or lysine 3 mutated (RPL12K3A)] were assayed for their binding to GST-CortoCD or GST (Figure 5, Figure S3).
(D) Equilibrium dissociation constant (KD) calculated from CortoCD or HP1CD interacting with unmethylated or trimethylated histone H3 peptides. For H3K9me3, peptide concentration was increased from 0 to 1 µM. For RPL12 and H3K27me3 peptide concentration was increased from 0 to 10 µM. NB: no binding; nd: not determined.
(§2) GST or GST fusion proteins were dialyzed using a Slide-A-Lyser cassette (Thermo Scientific) in running buffer (10 mM Hepes pH7.4, 150 mM NaCl, 3 mM EDTA, 0.005% P20 surfactant) (GE Healthcare). Real-time protein interaction assays were performed using a Biacore 3000. Kinetics and binding tests were first performed on empty surfaces. Data presented here result from substraction of empty surface RU (1 to 5 depending on the experiment) from active surface RU. GST was covalently coupled to a CM5 sensor chip (GE Healthcare) via its N-terminal amino acid. The carboxymethylated dextran surface was activated by injecting a mixture of 0.2 M 1-ethyl-3-(3-dimethylaminopropyl) and 0.05 M N-hydroxysuccinimide. GST was immobilized on the chip by injecting a 30 µg.mL^−1 solution in NaAc pH5 buffer. GST-CortoCD and GST-HP1CD were immobilized by injecting a 100 µg.mL^−1 solution in the same buffer. Binding tests were performed by injecting peptides at 1 or 10 µM in running buffer at a flow rate of 5 µL.min^−1 during 5 min. Kinetic assays were performed only when the binding test was positive. […] To calculate association constants, peptides were diluted in series from 1 to 10 µM in running buffer and dilutions were injected sequentially at a flow rate of 5 µL.mn^−1 during 5 min. Dissociation kinetics were then run during 10 min to calculate dissociation constants. Between assays, the chip was regenerated with 10 mM glycine pH2.0. Kinetic constants were calculated with BIAevaluation Software (Biacore) using the Fit kinetic simultaneous ka/kd (1∶1 binding; Langmuir algorithm). RPL12 peptides were synthesized at the IFR83 Peptide synthesis facility (Table S13). Histone peptides were provided by Diagenode (H3K27me3: sp-069-050; H3K4me3: sp-003-050; H3K9me3: sp-056-050; H3K4/K9um: sp-999-050; H3K27um: sp-998-050).

GST = target: T2, GST (Schistosoma japonicum, UniProt P08515); assay: Biacore real-time binding of peptides to immobilized GST (control surface); conditions: binding test, peptides at 1 or 10 µM
T2 construct: made in house
T2 sequence (P08515 whole entry): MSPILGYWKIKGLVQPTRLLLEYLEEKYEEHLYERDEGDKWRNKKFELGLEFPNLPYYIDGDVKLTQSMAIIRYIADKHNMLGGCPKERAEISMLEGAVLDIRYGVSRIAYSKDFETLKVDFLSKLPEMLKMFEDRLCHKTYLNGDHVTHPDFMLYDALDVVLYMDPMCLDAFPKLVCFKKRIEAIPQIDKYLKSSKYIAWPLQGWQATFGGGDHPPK
Experimental: as §1
as §2, with “RPL12 peptides were synthesized at the IFR83 Peptide synthesis facility (Table S13). Histone peptides were provided by Diagenode (H3K27me3: sp-069-050; H3K4me3: sp-003-050; H3K9me3: sp-056-050; H3K4/K9um: sp-999-050; H3K27um: sp-998-050).” left out

[3] = >200 µM = no specific interaction, read-out: KD for HP1CD

Compound	Kd [1, 3] [µM]	Kd [2] [µM]	kon [2] [M⁻¹ s⁻¹]	Kd ([1]; Figure 5C, RPL12 peptides 0 to 10 µM, NB = no binding, read-out: Equilibrium dissociation constant (KD), HP1CD) [µM]	binding of RPL12 peptides to GST (in words) (GST)
CC(C)C[C@H](NC(=O)[C@H](Cc1ccc(O)cc1)NC(=O)[C@@H](NC(=O)[C@H](CC(C)C)NC(=O)[C@H](CCCCN)NC(=O)[C@@H](NC(=O)[C@H](CCC(=O)O)NC(=O)[C@@H](NC(=O)[C@@H]1CCCN1C(=O)[C@H](CC(=O)O)NC(=O)[C@H](Cc1ccccc1)NC(=O)[C@H](CCCC[N+](C)(C)C)NC(=O)[C@@H]1CCCN1C(=O)[C@@H]1CCCN1)[C@@H](C)O)C(C)C)C(C)C)C(=O)N[C@@H](CCCNC(=N)N)C(=O)N[C@@H](CS)C(=O)N[C@H](C(=O)NCC(=O)NCC(=O)N[C@@H](CCC(=O)O)C(=O)N[C@H](C(=O)NCC(=O)N[C@@H](C)C(=O)O)C(C)C)C(C)C [RpL12K3me3] (H-PP[Lys(Me3)]FDPTEVKLVYLRCVGGEVGA-OH)	> 200	8	106		
PPKFDPTEVKLVYLRCVGGEVGA [RpL12um]	> 200	> 200	1.2	> 1000	None of these peptides bound GST
CC(C)C[C@H](NC(=O)[C@H](Cc1ccc(O)cc1)NC(=O)[C@@H](NC(=O)[C@H](CC(C)C)NC(=O)[C@H](CCCCN)NC(=O)[C@@H](NC(=O)[C@H](CCC(=O)O)NC(=O)[C@@H](NC(=O)[C@@H]1CCCN1C(=O)[C@H](CC(=O)O)NC(=O)[C@H](Cc1ccccc1)NC(=O)[C@H](CCCCN(C)C)NC(=O)[C@@H]1CCCN1C(=O)[C@@H]1CCCN1)[C@@H](C)O)C(C)C)C(C)C)C(=O)N[C@@H](CCCNC(=N)N)C(=O)N[C@@H](CS)C(=O)N[C@H](C(=O)NCC(=O)NCC(=O)N[C@@H](CCC(=O)O)C(=O)N[C@H](C(=O)NCC(=O)N[C@@H](C)C(=O)O)C(C)C)C(C)C [RpL12K3me2] (H-PP[Lys(Me2)]FDPTEVKLVYLRCVGGEVGA-OH)		> 200	4.1		
H-PPAFDPTEVKLVYLRCVGGEVGA-OH [RpL12K3A]	> 200	> 200			None of these peptides bound GST
CC(C)C[C@H](NC(=O)[C@H](Cc1ccc(O)cc1)NC(=O)[C@@H](NC(=O)[C@H](CC(C)C)NC(=O)[C@H](CCCC[N+](C)(C)C)NC(=O)[C@@H](NC(=O)[C@H](CCC(=O)O)NC(=O)[C@@H](NC(=O)[C@@H]1CCCN1C(=O)[C@H](CC(=O)O)NC(=O)[C@H](Cc1ccccc1)NC(=O)[C@H](CCCCN)NC(=O)[C@@H]1CCCN1C(=O)[C@@H]1CCCN1)[C@@H](C)O)C(C)C)C(C)C)C(=O)N[C@@H](CCCNC(=N)N)C(=O)N[C@@H](CS)C(=O)N[C@H](C(=O)NCC(=O)NCC(=O)N[C@@H](CCC(=O)O)C(=O)N[C@H](C(=O)NCC(=O)N[C@@H](C)C(=O)O)C(C)C)C(C)C [RpL12K10me3] (H-PPKFDPTEV[Lys(Me3)]LVYLRCVGGEVGA-OH)	> 200	> 200			None of these peptides bound GST
